Read-outs that look alike come from different tables or passages of the source. One block for each molecule: values may come before it.
Assays:
[1] = molecular target: human phosphodiesterase-5 (PDE5 enzyme isolated from human platelets) (Homo sapiens (Human), UniProt O76074); assay: PDE5 assay: formation of 5′GMP from cGMP (SPA)
Procedure: Evaluation of the effects of compounds of the present invention on the activity of the human phosphodiesterase-5 quantified by measuring the formation of 5′GMP from cGMP using PDE5 enzyme isolated from human platelets.
Thereafter, the reaction is initiated by addition of the enzyme and the mixture is incubated for 60 min at 22° C.
For basal control measurements, the enzyme is omitted from the reaction mixture. Following incubation SPA beads are added. After 20 min at 22° C. under shaking, the amount of [3H]5′GMP is quantified with a scintillation counter (Topcount, Packard).
The standard inhibitory reference compound is dipyridamole, which is tested in each experiment at several concentrations to obtain an inhibition curve from which its IC50 value is calculated.

[2] = test system: phenylephrine-precontracted rat aortic rings; assay: Isometric tension studies: relaxation of phenylephrine-precontracted rat aortic rings; conditions: for IC40: concentration where 40% relaxation was achieved; for EC50 / Emax: Rattus norvegicus
Procedure: After 1 week of acclimatization, rats were anesthetized. Appropriate depth of anesthesia was determined by the absence of the leg flexor response and the eyelid reflex. Then, the thorax was quickly opened by a midline incision, and the rat was sacrificed by cutting the heart and exsanguination.
Indomethacin (1 μM) was added to the saline solution.
Eligible rings were then washed several times to restore tension to the baseline level.
In some experiments, the entire length of the thoracic aorta was functionally denuded of the endothelial layer by gently scraping the luminal surface with a 1.5 mm glass rod. […] Rings were then washed several times to restore tension to the baseline level.
Indomethacin (1 μM) was added to the saline solution. […] Only vessels with at least 60% relaxation to 1 μM ACh from the tension with 300 nM were eligible.
The preparations were allowed to equilibrate for 60 min in Krebs with high glucose (25 mM) before contraction to a new single concentration of PE (300 nM).
Finally, sodium nitroprusside (0.1 mM) was added, in order to obtain maximum relaxation of arterial rings.
The amount of relaxation (percent values as means±SEM) was quantified as percent relaxation from the tension (plateau) achieved with phenylephrine.
Data are presented as mean±SEM. Statistical analysis of results has been performed by analysis of variance (ANOVA) either parametric or non-parametric (Kruskal-Wallis), followed by Bonferroni test or Dunn tests as appropriate (GraphPad Software Inc, San Diego, Calif., USA). Significance was accepted when P<0.05. Non-linear regression was conducted with GraphPad Software).

[3] = 5.0E−09M, percent inhibition of the control enzyme activity

Molecule: CCCc1c(/C=N/O)c(C)c2c(=O)[nH]c(-c3cc(S(=O)(=O)N4CCN(C)CC4)ccc3OCC)nn12 [Compound 1a, (E)-2-(2-ethoxy-5-((4-methylpiperazin-1-yl)sulfonyl)phenyl)-5-methyl-4-oxo-7-propyl-3,4-dihydropyrrolo[2,1-f][1,2,4]triazine-6-carbaldehyde oxime]
% inhibition at 5.0E−09M [1, 3]: 77.6%

Molecule: CCCc1c(/C=N/O)c(C)c2c(=O)[nH]c(-c3cc(S(=O)(=O)N4CCC(CCO[N+](=O)[O-])CC4)ccc3OCC)nn12 [Compound 1am, (E)-2-(1-(4-ethoxy-3-(6-((hydroxyimino)methyl)-5-methyl-4-oxo-7-propyl-3,4-dihydropyrrolo[1,2-f][1,2,4]triazin-2-yl)phenylsulfonyl)piperidin-4-yl)ethyl nitrate]
% inhibition at 5.0E−09M [1]: 25.1%
IC50 [1]: 66 nM

Molecule: CCCc1c(/C=N/O)c(C)c2c(=O)[nH]c(-c3cc(S(=O)(=O)N4CCN(CCCO[N+](=O)[O-])CC4)ccc3OCC)nn12 [Compound 1ao, (E)-3-(4-(4-ethoxy-3-(6-((hydroxyimino)methyl)-5-methyl-4-oxo-7-propyl-3,4-dihydropyrrolo[1,2-f][1,2,4]triazin-2-yl)phenylsulfonyl)piperazin-1-yl)propyl nitrate]
IC50 [1]: 12 nM
% inhibition at 5.0E−09M [1, 3]: 70.6%

Molecule: CCCc1cc(C)c2c(=O)[nH]c(-c3cc(S(=O)(=O)N4CCN(CCCO)CC4)ccc3OCC)nn12 [Compound 1ap, 2-(2-ethoxy-5-((4-(3-hydroxypropyl)piperazin-1-yl)sulfonyl)phenyl)-5-methyl-7-propylpyrrolo [2,1-f][1,2,4]triazin-4(3H)-one]
IC50 [1]: 2.8 nM
% inhibition at 5.0E−09M [1, 3]: 69.2%

Molecule: CCCc1c(CO)c(C)c2c(=O)[nH]c(-c3cc(S(=O)(=O)N4CCN(C)CC4)ccc3OCC)nn12 [Compound 1b, 2-(2-ethoxy-5-((4-methylpiperazin-1-yl)sulfonyl)phenyl)-6-(hydroxymethyl)-5-methyl-7-propylpyrrolo[2,1-f][1,2,4]triazin-4(3H)-one]
IC50 [1]: 12 nM
% inhibition at 5.0E−09M [1, 3]: 34.0%

Molecule: CCCc1c(C(O)CC#N)c(C)c2c(=O)[nH]c(-c3cc(S(=O)(=O)N4CCN(C)CC4)ccc3OCC)nn12 (stereo not drawn) [Compound 1u, 3-(2-(2-ethoxy-5-((4-methylpiperazin-1-yl)sulfonyl)phenyl)-5-methyl-4-oxo-7-propyl-3,4-dihydropyrrolo[2,1-f][1,2,4]triazin-6-yl)-3-hydroxy propanenitrile]
IC50 [1]: 1.5 nM
% inhibition at 5.0E−09M [1, 3]: 50.3%

Molecule: (E)-2-(4-(4-ethoxy-3-(6-((2-hydroxyethoxyimino)methyl)-5-methyl-4-oxo-7-propyl-3,4-dihydropyrrolo[1,2-f][1,2,4]triazin-2-yl)phenylsulfonyl)piperazin-1-yl)ethyl nitrate [Compound 1ak]
% inhibition at 5.0E−09M [1]: 8.3%

Molecule: (E)-2-(4-(4-ethoxy-3-(6-((methoxyimino)methyl)-5-methyl-4-oxo-7-propyl-3,4-dihydropyrrolo[1,2-f][1,2,4]triazin-2-yl)phenylsulfonyl)piperazin-1-yl)ethyl nitrate [Compound 1ai]
% inhibition at 5.0E−09M [1]: 0.3%

Second part, led by results:

% inhibition at 5.0E−09M [1, 3]: 74.5%
Molecule: CCCc1c(/C=N/O)c(C)c2c(=O)[nH]c(-c3cc(S(=O)(=O)N4CCN(CCO[N+](=O)[O-])CC4)ccc3OCC)nn12 [Compound 1af, (E)-2-(4-((4-ethoxy-3-(6-((hydroxyimino)methyl)-5-methyl-4-oxo-7-propyl-3,4-dihydropyrrolo[2,1-f][1,2,4]triazin-2-yl)phenyl)sulfonyl)piperazin-1-yl)ethyl nitrate]

% inhibition at 5.0E−09M [1, 3]: 84.9%
Molecule: CCCc1c(/C=N/O)c(C)c2c(=O)[nH]c(-c3cc(S(=O)(=O)N4CCC(CCO)CC4)ccc3OCC)nn12 [Compound 1al, (E)-2-(2-ethoxy-5-(4-(2-hydroxyethyl)piperidin-1-ylsulfonyl)phenyl)-5-methyl-4-oxo-7-propyl-3,4-dihydropyrrolo[1,2-f][1,2,4]triazine-6-carbaldehyde oxime]

% inhibition at 5.0E−09M [1, 3]: 84.9%
Molecule: CCCc1c(/C=N/O)c(C)c2c(=O)[nH]c(-c3cc(S(=O)(=O)N4CCN(CCCO)CC4)ccc3OCC)nn12 [Compound 1an, (E)-2-(2-ethoxy-5-(4-(3-hydroxypropyl)piperazin-1-ylsulfonyl)phenyl)-5-methyl-4-oxo-7-propyl-3,4-dihydropyrrolo[1,2-f][1,2,4]triazine-6-carbaldehyde oxime]

% inhibition at 5.0E−09M [1, 3]: 1.3%
Molecule: CCCOc1ccc(S(=O)(=O)N2CCC(CCO[N+](=O)[O-])CC2)cc1-c1nn2c(CCC)c(/C=N\O)c(C)c2c(=O)[nH]1 [Compound 1aq, (Z)-2-(1-((3-(6-((hydroxyimino)methyl)-5-methyl-4-oxo-7-propyl-3,4-dihydropyrrolo[2,1-f][1,2,4]triazin-2-yl)-4-propoxyphenyl)sulfonyl)piperidin-4-yl)ethyl nitrate]

% inhibition at 5.0E−09M [1, 3]: 33.0%
Molecule: CCCOc1ccc(S(=O)(=O)N2CCN(CCO)CC2)cc1-c1nn2c(CCC)c(CO)c(C)c2c(=O)[nH]1 [Compound 1n, 2-(5-((4-(2-hydroxyethyl)piperazin-1-yl)sulfonyl)-2-propoxyphenyl)-6-(hydroxymethyl)-5-methyl-7-propylpyrrolo[2,1-f][1,2,4]triazin-4(3H)-one]

% inhibition at 5.0E−09M [1, 3]: 83.0%
Molecule: CCCOc1ccc(S(=O)(=O)N2CCN(C)CC2)cc1-c1nn2c(CCC)c(/C=N/OC)c(C)c2c(=O)[nH]1 [Compound 1o, (E)-5-methyl-2-(5-((4-methylpiperazin-1-yl)sulfonyl)-2-propoxyphenyl)-4-oxo-7-propyl-3,4-dihydropyrrolo[2,1-f][1,2,4]triazine-6-carbaldehyde O-methyl oxime]

% inhibition at 5.0E−09M [1, 3]: 44.9%
Molecule: CCCc1c(C(O)CC(=O)NO)c(C)c2c(=O)[nH]c(-c3cc(S(=O)(=O)N4CCN(C)CC4)ccc3OCC)nn12 (stereo not drawn) [Compound 1t, 3-(2-(2-ethoxy-5-((4-methylpiperazin-1-yl)sulfonyl)phenyl)-5-methyl-4-oxo-7-propyl-3,4-dihydropyrrolo[2,1-f][1,2,4]triazin-6-yl)-N,3-dihydroxy propanamide]

% inhibition at 5.0E−09M [1, 3]: 75.5%
Molecule: CCCc1c(C=O)c(C)c2c(=O)[nH]c(-c3cc(S(=O)(=O)N4CCN(CCO)CC4)ccc3OCC)nn12 [Compound 1w, 2-(2-ethoxy-5-((4-(2-hydroxyethyl)piperazin-1-yl)sulfonyl)phenyl)-5-methyl-4-oxo-7-propyl-3,4-dihydropyrrolo[2,1-f][1,2,4]triazine-6-carbaldehyde]

EC50 ([2]; High Glucose (25 mM)): 20.4 nM
EC50 ([2]; Intact Endothelium (E+)): 0.186 nM
EC50 ([2]; L-NAME (100 μM)): 5.8 nM
EC50 ([2]; Without Endothelium): 20.6 nM
Molecule: CCCc1nn(C)c2c(=O)[nH]c(-c3cc(S(=O)(=O)N4CCN(C)CC4)ccc3OCC)nc12 [sildenafil, reference compound]
IC40 ([2]; High Glucose (25 mM)): 826.989 nM
IC40 ([2]; Intact Endothelium (E+)): 0.194 nM
IC40 ([2]; L-NAME (100 μM)): 95.659 nM
Emax ([2]; High Glucose (25 mM)): 49.1%
Emax ([2]; Intact Endothelium (E+)): 79.3%
Emax ([2]; L-NAME (100 μM)): 51.4%
Emax ([2]; Without Endothelium): 36.4%
IC40 ([2]; Without Endothelium): >1000 nM

From patent US11242347B2, “2-phenyl-3,4-dihydropyrrolo[2,1-Ff] [1,2,4]triazinone derivatives as phosphodiesterase inhibitors and uses thereof” (TOPADUR PHARMA AG, priority 2015, dated 2022)
